The IC50 is the concentration at which inhibition is half-maximal. Read a high IC50 as weaker potency.

Molecules are shown by their SMILES. Where only a bound is given, the exact number is not on record here.

For 20 compounds, IC50 results are on record in patent publication US9085561B2, “Cyclic urea- or lactam-substituted quinoxaline-type piperidines as ORL-1 modulators” (priority 2012, dated 2015).

Chain of human CYP2D6 (P10635 whole entry): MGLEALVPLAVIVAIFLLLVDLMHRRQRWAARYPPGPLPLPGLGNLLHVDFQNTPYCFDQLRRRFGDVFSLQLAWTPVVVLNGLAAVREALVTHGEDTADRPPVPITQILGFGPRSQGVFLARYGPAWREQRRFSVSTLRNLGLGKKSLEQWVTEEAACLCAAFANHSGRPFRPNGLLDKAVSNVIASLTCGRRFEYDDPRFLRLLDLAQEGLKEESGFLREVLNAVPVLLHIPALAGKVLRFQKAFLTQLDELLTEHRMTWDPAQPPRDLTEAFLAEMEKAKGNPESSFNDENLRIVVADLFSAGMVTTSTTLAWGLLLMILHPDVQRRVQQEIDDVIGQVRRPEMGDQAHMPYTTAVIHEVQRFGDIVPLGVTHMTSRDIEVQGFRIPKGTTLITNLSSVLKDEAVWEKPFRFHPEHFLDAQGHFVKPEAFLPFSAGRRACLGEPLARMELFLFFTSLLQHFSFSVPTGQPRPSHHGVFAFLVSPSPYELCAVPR

The test concerns the target human CYP2D6 (Homo sapiens, UniProt P10635). Kind of test: Cytochrome P450 2D6 inhibition (dextromethorphan O-demethylation, pooled human hepatic microsome).
In the case of `Nc1ccn(-c2nc3ccccc3n([C@H]3C[C@H]4CC[C@@H](C3)N4[C@@H]3C[C@@H]4CCCC[C@@H](C4)C3)c2=O)c(=O)n1` [Compound U066, 3-(4-amino-2-oxopyrimidin-1(2H)-yl)-1-((1R,3R,5S)-8-((1R,6S,8s)-bicyclo[4.3.1]decan-8-yl)-8-azabicyclo[3.2.1]octan-3-yl)quinoxalin-2(1H)-one], the IC50 was more than 20 µM.

`O=c1[nH]nc(-c2nc3ccccc3n([C@H]3C[C@H]4CCC[C@@H](C3)N4[C@@H]3C[C@@H]4CCCC[C@@H](C4)C3)c2=O)[nH]1` [EE6b(i)(i), 1-((1R,3R,5S)-9-((1R,6S,8s)-bicyclo[4.3.1]decan-8-yl)-9-azabicyclo[3.3.1]nonan-3-yl)-3-(5-oxo-4,5-dihydro-1H-1,2,4-triazol-3-yl)quinoxalin-2(1H)-one] displayed an IC50 of more than 20 µM.

The compound `O=c1cnn(-c2nc3ccccc3n([C@H]3C[C@H]4CC[C@@H](C3)N4[C@@H]3C[C@@H]4CCCC[C@@H](C4)C3)c2=O)c(=O)[nH]1` [Compound N9b, 2-(4-((1R,3R,5S)-8-((1R,6S,8s)-bicyclo[4.3.1]decan-8-yl)-8-azabicyclo[3.2.1]octan-3-yl)-3-oxo-3,4-dihydroquinoxalin-2-yl)-1,2,4-triazine-3,5(2H,4H)-dione] had an IC50 of more than 20 µM.

For the compound `C[C@@H]1C[C@@H]2C[C@H](C1)C[C@@H](N1[C@@H]3CCC[C@H]1C[C@@H](n1c(=O)c(-c4ccc(=O)[nH]c4)nc4ccccc41)C3)C2` [Compound U060, 1-((1R,1′R,3r,3′R,5S,5′S,7S)-7-methyl-[3,9′-bi(9′-azabicyclo[3.3.1]nonan)]-3′-yl)-3-(6-oxo-1,6-dihydropyridin-3-yl)quinoxalin-2(1H)-one], the concentration for half-maximal inhibition (IC50) is more than 20 µM.

`N[C@H]1CCN(c2nc3ccccc3n(C3CCN(C4CCCCCCC4)CC3)c2=O)C1` [CC39, reference compound] returned an IC50 of less than 1 µM.

Compound `CC1(C)[C@H]2CC[C@@H](CCN3[C@@H]4CCC[C@H]3C[C@@H](n3c(=O)c(-c5ccc[nH]c5=O)nc5ccccc53)C4)[C@@H]1C2` [U55a(i), 1-((1R,3S,5S)-9-(2-((1S,2S,5S)-6,6-dimethylbicyclo[3.1.1]heptan-2-yl)ethyl)-9-azabicyclo[3.3.1]nonan-3-yl)-3-(2-oxo-1,2-dihydropyridin-3-yl)quinoxalin-2(1H)-one] showed a half-maximal inhibitory concentration (IC50) of more than 20 µM.

`O=C1CCN(c2nc3ccccc3n(C3CCN(C4CCCCCCC4)CC3)c2=O)N1` [CC119, reference compound] returned a half-maximal inhibitory concentration (IC50) of more than 20 µM.

Take `C[C@@H]1C[C@@H]2C[C@H](C1)C[C@@H](N1[C@@H]3CCC[C@H]1C[C@@H](n1c(=O)c(-c4c[nH]c(=O)c(C(=O)O)c4)nc4ccccc41)C3)C2` [Compound U064, 5-(4-((1R,1′R,3r,3′R,5S,5′S,7S)-7-methyl-[3,9′-bi(9′-azabicyclo[3.3.1]nonan)]-3′-yl)-3-oxo-3,4-dihydroquinoxalin-2-yl)-2-oxo-1,2-dihydropyridine-3-carboxylic acid]: the IC50 was more than 20 µM.

For `O=c1c(N2CCNCC2)nc2ccccc2n1C1CCN(C2CCCCCCC2)CC1` [CC10, reference compound], the IC50 is less than 1 µM.

Compound `Cc1nn(-c2nc3ccccc3n([C@H]3C[C@H]4CCC[C@@H](C3)N4[C@@H]3C[C@@H]4CCCC[C@@H](C4)C3)c2=O)c(=O)[nH]c1=O` [Compound O10b, 2-(4-((1R,3R,5 S)-9-((1R,6S,8s)-bicyclo[4.3.1]decan-8-yl)-9-azabicyclo[3.3.1]nonan-3-yl)-3-oxo-3,4-dihydroquinoxalin-2-yl)-6-methyl-1,2,4-triazine-3,5(2H,4H)-dione] gave an IC50 of more than 20 µM.

With `O=C(O)Cn1cccc(-c2nc3ccccc3n([C@H]3C[C@H]4CCC[C@@H](C3)N4[C@H]3C[C@@H]4CCC[C@@H](C4)C3)c2=O)c1=O` [R15a(iii), 2-(3-(4-((1R,1′R,3r,3′R,5S,5′S)-[3,9′-bi(9′-azabicyclo[3.3.1]nonan)]-3′-yl)-3-oxo-3,4-dihydroquinoxalin-2-yl)-2-oxopyridin-1(2H)-yl)acetic acid], the concentration for half-maximal inhibition (IC50) was more than 20 µM.

In the case of `O=C(O)Cn1cc(-c2nc3ccccc3n([C@H]3C[C@H]4CCC[C@@H](C3)N4[C@H]3C[C@@H]4CCC[C@@H](C4)C3)c2=O)ccc1=O` [Compound U007, 2-(5-(4-((1R,1′R,3r,3′R,5S,5′S)-[3,9′-bi(9′-azabicyclo[3.3.1]nonan)]-3′-yl)-3-oxo-3,4-dihydroquinoxalin-2-yl)-2-oxopyridin-1(2H)-yl)acetic acid], the half-maximal inhibitory concentration (IC50) is more than 20 µM.

`O=C(O)Cn1c(-c2nc3ccccc3n([C@H]3C[C@H]4CCC[C@@H](C3)N4C3CCCCCCCCC3)c2=O)cccc1=O` [BB1c(iii), 2-(6-(4-((1R,3r,5S)-9-cyclodecyl-9-azabicyclo[3.3.1]nonan-3-yl)-3-oxo-3,4-dihydroquinoxalin-2-yl)-2-oxopyridin-1(2H)-yl)acetic acid]: the IC50 is more than 20 µM.

As for `O=C(O)Cn1c(-c2nc3ccccc3n([C@H]3C[C@H]4CC[C@@H](C3)N4[C@H]3C[C@@H]4CCC[C@@H](C4)C3)c2=O)cccc1=O` [Q1a(iii), 2-(6-(4-((1R,3R,5S)-8-((1R,3r,5S)-bicyclo[3.3.1]nonan-3-yl)-8-azabicyclo[3.2.1]octan-3-yl)-3-oxo-3,4-dihydroquinoxalin-2-yl)-2-oxopyridin-1(2H)-yl)acetic acid], the IC50 was more than 20 µM.

As to `O=C1CN(c2nc3ccccc3n(C3CCN(C4CCCCCCC4)CC3)c2=O)CCN1` [CC18, reference compound], the 50% inhibitory concentration (IC50) is less than 1 µM.

Compound `O=C(O)c1cc(-c2nc3ccccc3n([C@H]3C[C@H]4CCC[C@@H](C3)N4[C@@H]3C[C@@H]4CCCC[C@@H](C4)C3)c2=O)c[nH]c1=O` [Compound U043, 5-(4-((1R,3R,5S)-9-((1R,6S,8s)-bicyclo[4.3.1]decan-8-yl)-9-azabicyclo[3.3.1]nonan-3-yl)-3-oxo-3,4-dihydroquinoxalin-2-yl)-2-oxo-1,2-dihydropyridine-3-carboxylic acid] displayed an IC50 of more than 20 µM.

`C[C@@H]1C[C@@H]2C[C@H](C1)C[C@@H](N1[C@@H]3CCC[C@H]1C[C@@H](n1c(=O)c(N4C(=O)NC(C)(C)C4=O)nc4ccccc41)C3)C2` [Compound B47a]: the IC50 is more than 20 µM.

`C[C@@H]1C[C@@H]2C[C@H](C1)C[C@@H](N1[C@@H]3CCC[C@H]1C[C@@H](n1c(=O)c(-c4c[nH]c(=O)cn4)nc4ccccc41)C3)C2` [Compound U052, 1-((1R,1′R,3r,3′R,5S,5′S,7S)-7-methyl-[3,9′-bi(9′-azabicyclo[3.3.1]nonan)]-3′-yl)-3-(5-oxo-4,5-dihydropyrazin-2-yl)quinoxalin-2(1H)-one] showed an IC50 of more than 20 µM.

For the compound `O=c1[nH]nc(-c2nc3ccccc3n([C@H]3C[C@H]4CCC[C@@H](C3)N4[C@H]3C[C@@H]4CCC[C@@H](C4)C3)c2=O)[nH]1` [R6a(i)(i), 1-((1R,1′R,3r,3′R,5S,5′S)-[3,9′-bi(9′-azabicyclo[3.3.1]nonan)]-3′-yl)-3-(5-oxo-4,5-dihydro-1H-1,2,4-triazol-3-yl)quinoxalin-2(1H)-one], the IC50 is more than 20 µM.

Take `O=C(O)CN1CCN(c2nc3ccccc3n([C@H]3C[C@H]4CC[C@@H](C3)N4C3CCCCCCC3)c2=O)CC1` [CC337, reference compound]: the IC50 was determined as 13 µM.
